Patent publication US9951060B2, “2-acylaminothiazole derivative or salt thereof” (ASTELLAS PHARMA INC., priority 2014, dated 2018)

Tests used:
[1] = molecular target: T1, human c-Mpl-introduced Ba/F3 cell (Homo sapiens, UniProt P40238); test: Test Example 2: human c-Mpl-introduced Ba/F3 cell proliferative activity; assay type: cell-based; settings: concentration exhibiting 30% proliferation; 100% = positive control (Example 315 of Patent Document 1) at 1 μM
T1 construct: expressed in transfected cells
T1 sequence (P40238 26-635): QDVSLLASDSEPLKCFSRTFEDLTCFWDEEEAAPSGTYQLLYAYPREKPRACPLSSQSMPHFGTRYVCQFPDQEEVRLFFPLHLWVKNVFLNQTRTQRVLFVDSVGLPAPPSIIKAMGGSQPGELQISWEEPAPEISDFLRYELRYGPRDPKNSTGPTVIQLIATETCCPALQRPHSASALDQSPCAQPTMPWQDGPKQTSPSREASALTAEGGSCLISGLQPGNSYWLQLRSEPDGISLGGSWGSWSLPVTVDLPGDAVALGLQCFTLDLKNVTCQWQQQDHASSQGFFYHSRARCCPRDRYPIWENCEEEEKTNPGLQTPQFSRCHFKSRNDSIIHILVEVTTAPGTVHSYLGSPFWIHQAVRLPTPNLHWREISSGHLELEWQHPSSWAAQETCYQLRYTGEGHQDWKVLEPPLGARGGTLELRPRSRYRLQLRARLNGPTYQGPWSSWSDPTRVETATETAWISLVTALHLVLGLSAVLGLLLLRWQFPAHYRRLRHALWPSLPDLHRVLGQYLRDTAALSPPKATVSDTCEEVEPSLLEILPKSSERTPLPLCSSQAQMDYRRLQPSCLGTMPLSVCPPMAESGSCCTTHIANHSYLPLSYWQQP
How it was run: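 Ba/F3 cells stably expressing human c-Mpl seeded at 1×10^4 cells/well with test substance (100 nM to 10 μM final) in RPMI-1640/10% FBS, overnight at 37 °C. Cell number by WST-type kit absorbance at 450 nm after ~5 h; proliferation % relative to untreated (0%) and reference agonist at 1 μM (100%).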

[2] = molecular target: human muscarinic M3 receptor (Homo sapiens, UniProt P20309)
human muscarinic M3 receptor, sequence (P20309 whole entry): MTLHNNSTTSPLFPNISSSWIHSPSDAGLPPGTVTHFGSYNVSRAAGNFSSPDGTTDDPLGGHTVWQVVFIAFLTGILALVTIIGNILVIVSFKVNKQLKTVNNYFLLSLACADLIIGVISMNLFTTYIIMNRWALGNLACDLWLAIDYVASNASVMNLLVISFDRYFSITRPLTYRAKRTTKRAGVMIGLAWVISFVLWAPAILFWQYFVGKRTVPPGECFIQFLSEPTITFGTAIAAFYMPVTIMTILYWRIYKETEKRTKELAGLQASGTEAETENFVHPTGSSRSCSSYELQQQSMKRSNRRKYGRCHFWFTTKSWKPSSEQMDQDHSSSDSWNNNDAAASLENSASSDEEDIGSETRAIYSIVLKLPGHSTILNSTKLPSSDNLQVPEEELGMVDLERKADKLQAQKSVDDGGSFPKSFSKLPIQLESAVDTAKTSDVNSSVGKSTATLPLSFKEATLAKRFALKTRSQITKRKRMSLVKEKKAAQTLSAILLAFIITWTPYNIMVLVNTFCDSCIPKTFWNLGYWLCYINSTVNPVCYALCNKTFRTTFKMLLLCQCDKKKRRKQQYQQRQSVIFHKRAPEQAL

SMILES	human c-Mpl-introduced Ba/F3 cell proliferative activity EC30 [1] [µM]	muscarinic M3 receptor-positive allosteric modulator activity, 1 μM (-fold shift) [2]	muscarinic M3 receptor-positive allosteric modulator activity, 10 μM (-fold shift) [2]
C[C@@H]1CCCN1Cc1sc(NC(=O)c2cnc(N3CCN(CCC(=O)O)CC3)cn2)nc1-c1cc(C2CC2)cc(C(F)(F)F)c1 [Example 67]	>10	40 -fold shift	114 -fold shift
COc1c(F)cc(-c2nc(NC(=O)c3cnc(N4CCN(CCC(=O)O)CC4)cn3)sc2CN2CCC[C@H]2C)cc1C(F)(F)F [Example 72]	>10	31 -fold shift	152 -fold shift
C[C@@H]1CCCN1Cc1sc(NC(=O)c2cnc(N3CCN(CCC(=O)O)CC3)cn2)nc1-c1cc(Cl)cs1 [Example 82]	>10	11 -fold shift	43 -fold shift
C[C@@H]1CCCN1Cc1sc(NC(=O)c2cnc(N3CCN(CCC(=O)O)[C@@H](C)C3)cn2)nc1-c1cc(C(F)(F)F)cs1 [Example 95]	3	91 -fold shift	233 -fold shift
CCN(CC)Cc1sc(NC(=O)c2cnc(N3CCN(CCC(=O)O)CC3)cn2)nc1-c1cc(F)cc(C(F)(F)F)c1 [Example 109]	>10	30 -fold shift	191 -fold shift
C[C@@H]1CC[C@@H](C)N1Cc1sc(NC(=O)c2cnc(N3CCN(CCC(=O)O)CC3)cn2)nc1-c1cc(F)cc(C(F)(F)F)c1 [Example 119]	>10	110 -fold shift	503 -fold shift
CCOc1ccc(-c2nc(NC(=O)c3cnc(N4CCN(CCC(=O)O)C[C@H]4C)cn3)sc2CN2CCC[C@H]2CC)cc1C(F)(F)F [Example 133]	>10	30 -fold shift	164 -fold shift
CC[C@@H]1CCCN1Cc1sc(NC(=O)c2cnc(N3CCN(CCC(=O)O)C[C@H]3C)cn2)nc1-c1ccc(OC(C)C)c(C(F)(F)F)c1 [Example 135]	>10	25 -fold shift	204 -fold shift
C[C@@H]1CCCN1Cc1sc(NC(=O)c2cnc(N3CCN(CCC(=O)O)C[C@H]3C)cn2)nc1-c1cc(F)cc(C(F)(F)F)c1 [Example 140]	>10	28 -fold shift	158 -fold shift
C[C@@H]1CCCN1Cc1sc(NC(=O)c2cnc(N3CCN(CC(=O)O)C[C@H]3C)cn2)nc1-c1cc(F)cc(C(F)(F)F)c1 [Example 141]	>10	45 -fold shift	159 -fold shift
C[C@@H]1CCCN1Cc1sc(NC(=O)c2cnc(N3CCN(CCC(=O)O)[C@@H](C)C3)cn2)nc1-c1cc(Cl)cs1 [Example 142]	4.7	52 -fold shift	160 -fold shift
CC[C@@H]1CCCN1Cc1sc(NC(=O)c2cnc(N3CCN(CCC(=O)O)[C@H](C)C3)cn2)nc1-c1cc(Cl)cs1 [Example 143]	7.8	65 -fold shift	81 -fold shift
